Results taken from patent publication US20230293495A1, “PHARMACEUTICAL FORMULATIONS FOR TREATING DISEASES MEDIATED BY KDM1A” (Imago Biosciences, Inc., priority 2020, published 2023).

What was measured:
[1] = biological target: KDM1A (Homo sapiens, UniProt O60341); test: Inhibition of KDM1A; format: biochemical
[2] = Excipient compatibility study: binary mixtures of Compound B and excipient in open vials, assay and related substances (RS); format: physicochemical; details: for RS-1 (related substance): in %; for Total related substances: in % (unit assumed)
Description: Commonly used excipients for oral solid dosage formulations were evaluated for this study including fillers, binders, disintegrants, glidants, lubricants and organic acid stabilizers.
Briefly, each excipient and API were individually weighed and filled in vials, followed by the addition of glass beads. The samples were closed, vortexed, and refrigerated at 2 to 8° C. prior to initiation of study as the sample preparation was executed over a period of 10 days. All vials were removed from the refrigerator and allowed to equilibrate to room temperature, then opened, and stored at the designated storage conditions at the same t=0.

Structure (SMILES)	Inhibition of KDM1A, in words [1]	% LC (assay) ([2]; 1 week, 50° C./11% RH) [% LC]	RS-1 (related substance) ([2]; 1 week, 50° C./11% RH)	Total related substances ([2]; 1 week, 50° C./11% RH)	% LC (assay) ([2]; 1 week, 50° C./75% RH) [% LC]	Related substance RRT 1.081 ([2]; 1 week, 50° C./75% RH) [%]	RS-1 (related substance) ([2]; 1 week, 50° C./75% RH)	Total related substances ([2]; 1 week, 50° C./75% RH)	% LC (assay) ([2]; 2 weeks, 50° C./11% RH) [% LC]	RS-1 (related substance) ([2]; 2 weeks, 50° C./11% RH)	Total related substances ([2]; 2 weeks, 50° C./11% RH)	% LC (assay) ([2]; 2 weeks, 50° C./75% RH) [% LC]	Related substance RRT 1.081 ([2]; 2 weeks, 50° C./75% RH) [%]	RS-1 (related substance) ([2]; 2 weeks, 50° C./75% RH)	Total related substances ([2]; 2 weeks, 50° C./75% RH)	% LC (assay) ([2]; week 0) [% LC]	Related substance RRT 1.081 ([2]; week 0) [%]	RS-1 (related substance) ([2]; week 0)	Total related substances ([2]; week 0)
CN1CCN(C(=O)[C@H](CCCN[C@@H]2C[C@H]2c2ccc(F)cc2)NC(=O)c2ccc(-n3ccnn3)cc2)CC1 [Compound A, N—((S)-5-((1R,2S)-2-(4-fluorophenyl)cyclopropylamino)-1-(4-methylpiperazin-1-yl)-1-oxopentan-2-yl)-4-(1H-1,2,3-triazol-1-yl)benzamide]	has shown activity for the inhibition of KDM1A																		
CN1CCN(C(=O)[C@H](CCCN[C@@H]2C[C@H]2c2ccc(F)cc2)NC(=O)c2ccc(-n3ccnn3)cc2)CC1.Cc1ccc(S(=O)(=O)O)cc1 [Compound B, N—((S)-5-((1R,2S)-2-(4-fluorophenyl)cyclopropylamino)-1-(4-methylpiperazin-1-yl)-1-oxopentan-2-yl)-4-(1H-1,2,3-triazol-1-yl)benzamide ditosylate]	has shown activity for the inhibition of KDM1A	98.824	0.1652	0.2245	102.663	0.0649	0.1453	0.2102	100.211	0.3516	0.4595	101.800	0.0715	0.3545	0.4260	102.973	0.0589	0.0935	0.1525
